From publication PMC3297008, “Novel Marine Phenazines as Potential Cancer Chemopreventive and Anti-Inflammatory Agents” (Marine Drugs, 2012)
Like-named read-outs stand apart in the source and are kept apart here.

Assays:
RAW 264.7 cells = assay: Cell viability (SRB) of RAW 264.7 cells in the NO assay; type: cell-based; settings: 50 µM
[1] = tested on: NO production in LPS-induced RAW 264.7 cells; assay: LPS-induced NO production in RAW 264.7 cells (Griess reagent); settings: Mus musculus
Description: The amount of nitrite was measured using the Griess reagent to assess the NO production [47, 48]. […] The cells were treated with various concentrations of compounds dissolved in phenol-red free DMEM for 30 min followed by 1 μg/mL of LPS treatment for 24 h. […] The standard curve was created by using known concentrations of sodium nitrite.

NFκB [2] = assay: TNF-α-induced NFκB luciferase reporter assay in stably-transfected human embryonic kidney cells 293; type: cell-based; settings: human embryonic kidney cells 293 NFκB reporter, TNF-α 2 ng/mL, 6 h; read-out: IC50, inhibition of TNF-α-induced NFκB activity
Description: Activation of NFκB may promote cell proliferation or prevent cell death through apoptosis. Inhibition of NFκB signaling has potential application for the treatment or prevention of cancer; some inhibitors are known. […] […].
We employed human embryonic kidney cells 293 Panomic (Fremont, CA, USA) for monitoring changes occurring along the NFκB pathway. Stable constructed cells were seeded into sterile 96-well plate at 20 × 10^3 cells per well. Cells maintained in Dulbecco’s modified Eagle’s medium (DMEM) Invitrogen Co. (Carlsbad, CA, USA), supplemented with 10% FBS, 100 units/mL penicillin, 100 µg/mL streptomycin, 2 mM L-glutamine. After 48 h incubation, the medium was replaced and cells were treated with various concentration of test substances dissolved in PBS. TNF-α (Human, Recombinant, E. coli, Calbiochem, Gibbstown, NJ, USA) was used as an activator at a concentration of 2 ng/mL (0.14 nM). The plate was incubated for 6 h. Spent medium was discarded and the cells were washed once with PBS. Cells were lysed using 50 µL (for 96-well plate) Reporter Lysis Buffer from Promega, by incubating for 5 min on a shaker, and stored at −80 °C. The luciferase assay was performed using the Luc assay system from Promega (Madison, WI, USA). The gene product, luciferase enzyme, reacts with luciferase substrate, emitting light which was detected using a luminometer (LUMIstar Galaxy BMG). Data for NFκB constructs are expressed as IC50 values (i.e., concentration required to inhibit TNF-activated NFκB activity by 50%).

[3] = tested on: PGE2 production in LPS-induced RAW 264.7 cells; assay: LPS-induced PGE2 production in RAW 264.7 cells (ELISA); type: cell-based; settings: Mus musculus
Description: RAW 264.7 cells (1 × 10^5 cells/well, 200 µL) were incubated in a 96-well culture plate in the presence of 5% CO2 at 37 °C for 24 h. The medium was changed to non-colored DMEM containing 5% FBS, and the cells were treated with various concentrations of compounds for 30 min followed by 1 μg/mL of LPS treatment for 24 h. Cell media were collected, diluted 18-times and used for measuring PGE2. Nunc-Immuno 96-well plates were coated with secondary antibody (goat anti-mouse IgG) affinity purified (Jackson Immuno Research Laboratories). Aliquots of cell media were added to the immune plate with primary PGE2 monoclonal antibody (Cayman Chemical) and a tracer PGE2-acetylcholinesterase (Cayman Chemical) and incubated overnight at room temperature in the dark. The next day, the wells were aspirated, washed, 200 µL of Elman’s reagent was added in each well, and incubated 2–5 h at 37 °C out of direct light until control wells reach an optical density 0.4–0.5. Gentle rotating/shaking was used to decrease the time required for color development. Absorbance was read at 412 nm. The PGE2 concentration of each sample was calculated from a PGE2 standard curve (PGE2 from Cayman Chemical). The percent inhibition as a function of the inhibitor concentration was graphed to determine the IC50 values (concentration at which there was 50% inhibition).

[4] = tested on: glutathione S-transferase (GST); parameters: method as in PMID 21187465; settings: cell culture; cited from earlier work
[5] = parameters: method as in PMID 21187465; settings: cited from earlier work
[6] = tested on: quinone reductase 1 (NQ01, QR1); parameters: method as in PMID 21187465; settings: cell culture; cited from earlier work
iNOS = tested on: iNOS; parameters: method as in PMID 21105712; settings: cited from earlier work
NFκB [7] = tested on: NFκB; parameters: method as in PMID 21105712; settings: earlier work; read-out: IC50, inhibition of NFκB; cited from earlier work

With Oc1ccc(/C=C/c2cc(O)cc(O)c2)cc1 [Resveratrol, resveratrol, reference compound] as the compound, how does the “NO % cell survival” value (RAW 264.7 cells) read?
The value was 86.9 ± 3.9%.

And the inhibition at 50 µM ([1]; RAW264.7, read-out: NO % inhibition (50 µM), LPS-induced RAW 264.7 cells, 50 µM)?
The inhibition at 50 µM was 93 ± 0.8%.

And the IC50 ([1]; RAW264.7, read-out: NO IC50)?
Its IC50 is 31.9 ± 1.8 µM.

And the IC50 (NFκB [2])?
The IC50 was 2.5 ± 0.3 µM.

And the inhibition at 50 µM ([3]; RAW264.7, read-out: PGE2 % inhibition (50 µM))?
The inhibition at 50 µM was 70.2 ± 13.9%.

What about the IC50 ([3]; RAW264.7, read-out: PGE2 IC50) of the same compound?
The IC50 was 2.5 ± 0.43 µM.

Which results are given for Oc1c(Br)cc(Br)c2nc3ccccc3nc12 [2,4-dibromo-1-hydroxyphenazine]?
activation of glutathione S-transferase (GST) [4]: activate; bioavailability [5]: poor bioavailability; in vivo activity [5]: low; activation of QR1 [6]: activate

Which “inhibition of iNOS activity” value (iNOS) does the source give for Oc1c(Br)ccc2nc3ccccc3nc12 [2-bromo-1-hydroxyphenazine] here?
The value was “did not inhibit iNOS activity”.

And the IC50 (NFκB [7])?
The IC50 was 73 µM.

Which IC50 (NFκB [2]) does the source give for Cc1ccc(S(=O)(=O)N[C@@H](Cc2ccccc2)C(=O)CCl)cc1 [TPCK, N-tosyl-L-phenylalanyl chloromethyl ketone, reference compound] here?
The IC50 was 3.8 µM.

Which IC50 (NFκB [2]) does the source give for Cc1ccc(S(=O)(=O)/C=C/C#N)cc1 [BAY-11-7082, reference compound] here?
The IC50 was 2 ± 0.28 µM.
